Legend:
Focal adhesion kinase 1 = Focal adhesion kinase 1 (Homo sapiens, UniProt Q05397); test: Inhibition of FAK (unknown origin) by HTRF assay
Cytochrome P450 1A2 = molecular target: T1, Cytochrome P450 1A2 (Homo sapiens, UniProt P05177); test: Inhibition of CYP1A2 in human liver microsomes in presence of NADPH by LC-MS/MS analysis; assay type: ADME, Microsome
T1 sequence (P05177 whole entry): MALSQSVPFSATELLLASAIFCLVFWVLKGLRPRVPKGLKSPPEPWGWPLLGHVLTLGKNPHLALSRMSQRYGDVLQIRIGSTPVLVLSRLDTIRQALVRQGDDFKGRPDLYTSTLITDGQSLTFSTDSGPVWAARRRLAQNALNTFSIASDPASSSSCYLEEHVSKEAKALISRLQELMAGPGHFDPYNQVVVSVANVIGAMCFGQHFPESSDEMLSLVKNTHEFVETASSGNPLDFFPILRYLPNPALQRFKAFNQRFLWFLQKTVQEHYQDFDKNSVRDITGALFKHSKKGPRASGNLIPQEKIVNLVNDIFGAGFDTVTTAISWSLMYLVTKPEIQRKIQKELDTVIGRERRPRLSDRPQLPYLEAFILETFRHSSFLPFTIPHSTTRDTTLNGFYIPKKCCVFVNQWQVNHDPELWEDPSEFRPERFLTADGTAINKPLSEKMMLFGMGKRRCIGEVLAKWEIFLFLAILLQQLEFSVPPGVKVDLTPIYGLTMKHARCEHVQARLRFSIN

Cytochrome P450 2C9 = Cytochrome P450 2C9 (Homo sapiens, UniProt P11712); test: Inhibition of CYP2C9 in human liver microsomes in presence of NADPH by LC-MS/MS analysis; assay type: ADME, Microsome
Cytochrome P450 2C19 = Cytochrome P450 2C19 (Homo sapiens, UniProt P33261); test: Inhibition of CYP2C19 in human liver microsomes in presence of NADPH by LC-MS/MS analysis; assay type: ADME, Microsome
Cytochrome P450 2D6 = Cytochrome P450 2D6 (Homo sapiens, UniProt P10635); test: Inhibition of CYP2D6 in human liver microsomes in presence of NADPH by LC-MS/MS analysis; assay type: ADME, Microsome
Cytochrome P450 3A4 = Cytochrome P450 3A4 (Homo sapiens, UniProt P08684); test: Inhibition of CYP3A4 in human liver microsomes in presence of NADPH by LC-MS/MS analysis; assay type: ADME, Microsome
A549 = test: Antitumor activity against human A549 cells xenografted in mouse model assessed as tumor growth inhibition at 50 mg/kg, po administered for 5 days and measured after 2 days relative to control; settings: 168 h, read-out: TGI
SK-OV-3 [1] = test: Antitumor activity against human SK-OV-3 cells xenografted in mouse model assessed as tumor growth inhibition at 25 mg/kg administered twice daily for 5 days and measured after 2 days break relative to control; assay type: functional; settings: SK-OV-3, 168 h, time 7 day, read-out: TGI
SK-OV-3 [2] = test: Antitumor activity against human SK-OV-3 cells xenografted in mouse model assessed as tumor growth inhibition at 25 mg/kg co-administered with paclitaxel as twice daily dose for 5 days and measured after 2 days break relative to control; settings: SK-OV-3, 168 h, read-out: TGI
in vitro = settings: human, liver microsomes
Description: Metabolic stability in human liver microsomes assessed as intrinsic clearance preincubated for 5 mins followed by NADPH addition and measured after 60 mins by LC-MS/MS analysis

SK-OV-3 [3] = test: Antitumor activity against human SK-OV-3 cells xenografted in mouse model assessed as tumor growth inhibition at 4 mg/kg, ip administered as weekly dose relative to control; assay type: functional; settings: read-out: TGI

Cytochrome P450 3A4, sequence (P08684 whole entry): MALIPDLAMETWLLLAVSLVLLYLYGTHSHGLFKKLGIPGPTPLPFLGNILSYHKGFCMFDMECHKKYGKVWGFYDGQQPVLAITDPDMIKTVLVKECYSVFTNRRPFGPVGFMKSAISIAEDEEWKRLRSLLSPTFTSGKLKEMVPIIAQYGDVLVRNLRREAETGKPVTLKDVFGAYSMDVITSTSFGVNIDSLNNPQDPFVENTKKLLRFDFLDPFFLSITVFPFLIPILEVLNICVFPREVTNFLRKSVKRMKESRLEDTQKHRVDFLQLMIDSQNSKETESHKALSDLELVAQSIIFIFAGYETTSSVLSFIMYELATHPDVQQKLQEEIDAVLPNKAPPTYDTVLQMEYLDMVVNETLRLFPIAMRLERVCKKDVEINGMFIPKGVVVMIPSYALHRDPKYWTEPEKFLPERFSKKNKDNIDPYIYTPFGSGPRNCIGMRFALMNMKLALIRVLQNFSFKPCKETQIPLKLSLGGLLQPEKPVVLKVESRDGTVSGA
Cytochrome P450 2C9, sequence (P11712 whole entry): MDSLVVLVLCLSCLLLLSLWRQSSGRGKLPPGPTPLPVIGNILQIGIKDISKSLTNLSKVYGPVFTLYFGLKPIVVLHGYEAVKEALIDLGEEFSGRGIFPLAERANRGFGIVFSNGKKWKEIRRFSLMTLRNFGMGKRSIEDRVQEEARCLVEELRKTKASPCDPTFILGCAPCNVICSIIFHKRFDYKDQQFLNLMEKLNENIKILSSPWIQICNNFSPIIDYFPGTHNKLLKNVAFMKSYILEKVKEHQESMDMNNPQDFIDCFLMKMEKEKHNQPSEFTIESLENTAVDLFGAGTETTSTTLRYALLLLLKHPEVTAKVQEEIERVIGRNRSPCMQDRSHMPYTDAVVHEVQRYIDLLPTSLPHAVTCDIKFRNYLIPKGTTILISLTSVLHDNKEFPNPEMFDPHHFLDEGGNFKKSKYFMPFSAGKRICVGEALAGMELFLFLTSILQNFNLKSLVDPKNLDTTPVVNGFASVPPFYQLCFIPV
Focal adhesion kinase 1, sequence (Q05397 whole entry): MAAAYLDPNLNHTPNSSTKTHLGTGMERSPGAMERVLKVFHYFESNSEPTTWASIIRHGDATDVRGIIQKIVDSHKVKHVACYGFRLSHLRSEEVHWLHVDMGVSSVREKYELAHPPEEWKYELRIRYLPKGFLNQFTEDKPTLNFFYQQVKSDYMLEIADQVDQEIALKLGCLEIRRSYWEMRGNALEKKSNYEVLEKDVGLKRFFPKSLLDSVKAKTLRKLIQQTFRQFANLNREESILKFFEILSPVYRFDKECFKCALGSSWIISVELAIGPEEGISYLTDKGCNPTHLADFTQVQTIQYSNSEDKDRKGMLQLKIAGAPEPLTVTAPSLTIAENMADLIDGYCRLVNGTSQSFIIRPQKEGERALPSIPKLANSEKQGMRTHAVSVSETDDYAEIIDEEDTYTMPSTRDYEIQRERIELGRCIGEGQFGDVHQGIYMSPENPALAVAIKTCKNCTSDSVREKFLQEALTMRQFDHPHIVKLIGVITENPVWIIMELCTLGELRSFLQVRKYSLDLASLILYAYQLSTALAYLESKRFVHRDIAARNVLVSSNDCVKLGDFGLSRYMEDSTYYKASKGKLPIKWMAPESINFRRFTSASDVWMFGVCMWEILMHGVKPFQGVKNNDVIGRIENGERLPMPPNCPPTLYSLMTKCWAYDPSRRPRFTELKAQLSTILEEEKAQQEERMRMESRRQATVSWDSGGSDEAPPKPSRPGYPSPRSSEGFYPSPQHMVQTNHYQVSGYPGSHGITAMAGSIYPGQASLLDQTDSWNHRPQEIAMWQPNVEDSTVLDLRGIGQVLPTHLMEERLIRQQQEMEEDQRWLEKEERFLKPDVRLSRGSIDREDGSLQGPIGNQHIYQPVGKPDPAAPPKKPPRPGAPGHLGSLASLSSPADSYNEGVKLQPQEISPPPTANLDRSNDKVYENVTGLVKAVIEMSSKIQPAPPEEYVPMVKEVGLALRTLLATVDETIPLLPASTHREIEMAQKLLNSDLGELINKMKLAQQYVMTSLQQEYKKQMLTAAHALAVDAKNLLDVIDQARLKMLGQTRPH
Cytochrome P450 2C19, sequence (P33261 whole entry): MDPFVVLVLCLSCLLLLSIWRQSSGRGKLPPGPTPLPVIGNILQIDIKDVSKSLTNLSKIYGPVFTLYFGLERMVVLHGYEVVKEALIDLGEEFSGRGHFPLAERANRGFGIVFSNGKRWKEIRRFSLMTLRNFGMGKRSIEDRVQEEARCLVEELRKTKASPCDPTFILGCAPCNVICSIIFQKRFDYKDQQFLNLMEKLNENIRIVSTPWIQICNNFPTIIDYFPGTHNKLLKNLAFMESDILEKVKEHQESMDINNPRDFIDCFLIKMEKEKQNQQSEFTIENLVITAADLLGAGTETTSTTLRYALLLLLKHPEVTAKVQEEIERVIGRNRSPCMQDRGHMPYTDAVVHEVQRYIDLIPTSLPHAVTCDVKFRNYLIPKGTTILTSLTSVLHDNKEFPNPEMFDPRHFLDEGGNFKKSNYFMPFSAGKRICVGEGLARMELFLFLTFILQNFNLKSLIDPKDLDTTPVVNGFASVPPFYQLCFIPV
Cytochrome P450 2D6, sequence (P10635 whole entry): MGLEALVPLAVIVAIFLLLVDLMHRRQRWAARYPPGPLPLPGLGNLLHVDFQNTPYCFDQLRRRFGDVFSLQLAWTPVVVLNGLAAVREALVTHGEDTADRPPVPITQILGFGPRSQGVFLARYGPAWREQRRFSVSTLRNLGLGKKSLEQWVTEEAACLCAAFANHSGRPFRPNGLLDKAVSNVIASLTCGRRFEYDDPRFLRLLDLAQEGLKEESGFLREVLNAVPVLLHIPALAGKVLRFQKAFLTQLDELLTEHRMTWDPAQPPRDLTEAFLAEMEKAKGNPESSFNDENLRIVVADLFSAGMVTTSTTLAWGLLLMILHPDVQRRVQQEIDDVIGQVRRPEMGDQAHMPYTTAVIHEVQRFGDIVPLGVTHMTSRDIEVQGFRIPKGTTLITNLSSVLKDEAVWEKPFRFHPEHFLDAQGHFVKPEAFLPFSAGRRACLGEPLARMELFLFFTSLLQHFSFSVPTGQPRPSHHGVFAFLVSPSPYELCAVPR

Question: With CC(=O)Nc1ccc(Nc2nc(Nc3ccc(NC(=O)CCNC(=O)c4ccc(F)nc4)cc3)ncc2Br)c(NC(C)=O)c1 as the molecule, how does the IC50 (Focal adhesion kinase 1) read?
Answer: 0.0113 µM

Question: For CNC(=O)c1ccccc1Nc1nc(Nc2ccc(OCCF)cc2)ncc1Br, which IC50 (Cytochrome P450 1A2) is on record?
Answer: 26.6 µM

Question: What about the IC50 (Cytochrome P450 2C9) of the same molecule?
Answer: 22.5 µM

Question: And the IC50 (Cytochrome P450 2C19)?
Answer: 36.2 µM

Question: What about the IC50 (Cytochrome P450 2D6) of the same molecule?
Answer: > 50 µM

Question: And the IC50 (Cytochrome P450 3A4)?
Answer: > 50 µM

Question: What does the source list for CNC(=O)c1ccc(Nc2ncc(C(F)(F)F)c(NCc3nccnc3N(C)S(C)(=O)=O)n2)cc1 [DEFACTINIB]?
Answer: inhibition in vivo at 50 mg/kg (A549): 40.7%; inhibition in vivo at 25 mg/kg (SK-OV-3 [1]): 53.9%; inhibition in vivo at 25 mg/kg (SK-OV-3 [2]): 74.7%

Question: With O=C(O)Cc1ccccc1Nc1c(Cl)cccc1Cl [DICLOFENAC] as the molecule, how does the microsomal CLint at 1 h (in vitro) read?
Answer: 232 µL/min/mg

Question: With C#Cc1cccc(Nc2ncnc3cc(OCCOC)c(OCCOC)cc23)c1 [ERLOTINIB] as the molecule, how does the inhibition in vivo at 50 mg/kg (A549) read?
Answer: 47.4%

Question: With CC(=O)O[C@H]1C(=O)[C@@]2(C)[C@H]([C@H](OC(=O)c3ccccc3)[C@]3(O)C[C@H](OC(=O)[C@H](O)[C@@H](NC(=O)c4ccccc4)c4ccccc4)C(C)=C1C3(C)C)[C@]1(OC(C)=O)CO[C@@H]1C[C@@H]2O [PACLITAXEL] as the molecule, how does the inhibition in vivo at 4 mg/kg (SK-OV-3 [3]) read?
Answer: 55.3%

Reference: ChEMBL document CHEMBL6182900, “Discovery of potent focal adhesion kinase (FAK) inhibitor A8 with enhanced antitumor activity” (Eur J Med Chem, 2025)
